Results: patent US20150291658A1, “NOVEL CHONDRAMIDE DERIVATIVES” (HELMOLTZ-ZENTRUM FÜR INFEKTIONSFORSCHUNG, priority 2012, published 2015)

Assays:
[1] = system: human U-2 OS osteosarcoma cell line; assay: Growth inhibition experiments (MTT, 5 d), U-2 OS; format: cell-based; details: Table 1; U-2 OS; read-out: GI50 values U-2 OS
Protocol: (§1) Cells were seeded at 6×10^3 cells per well of 96-well plates (Corning CellBind®) in 180 μl complete medium and directly treated with chondramides dissolved in methanol in a serial dilution. Each compound was tested in duplicate for 5 d, as well as the internal methanol control. After 5 d incubation, 20 μl of 5 mg/ml MTT (Mosmann, T. (1983). Rapid Colorimetric Assay for Cellular Growth and Survival: Application to Proliferation and Cytotoxicity Assays. J. Immunol. Meth. 65, 55-63) in PBS was added per well and it was further incubated for 2 h at 37° C. The medium was then discarded and cells were washed with 100 μl PBS before adding 100 μl 2-propanol/10 N HCl (250:1) in order to dissolve formazan granules. The absorbance at 570 nm was measured using a microplate reader (EL808, Bio-Tek Instruments Inc.), and cell viability was expressed as percentage relative to the respective methanol control. GI50 values were obtained by sigmoidal curve fitting. Testing of fractions was performed likewise using 1.2×10^4 cells per well. Samples were dissolved in cell culture medium and cells were treated for 2 d before adding MTT. Viability was expressed relative to the untreated control.

[2] = system: panel of cell lines derived from various origins and tissues (cancer cell lines, non-cancerous cell lines, primary cells); assay: Growth inhibition experiments (MTT, 5 d), panel of cell lines; format: cell-based; details: GI50-based comparison, panel of cell lines
Protocol: First, the compounds were tested on a small panel of cell lines derived from various origins and tissues. GI50 values were compared to those determined using chondramides A˜C (see Table 1).
(§2) Cell lines were obtained from the American Type Culture Collection (ATCC) and the German Collection of Microorganisms and Cell Cultures (Deutsche Sammlung für Mikroorganismen and Zellkulturen, DSMZ), and HUVEC (single donor) were purchased from PromoCell. Cells were cultured under the conditions recommended by the respective depositor in a standard humidified incubator at 37° C. with 5% CO2.
as §1
These compounds were profiled regarding their growth inhibitory potential in a panel of cancer cell lines. Natural chondramide A was used as reference:
Biological evaluation of group A derivatives. GI50 values [nM] were determined in a small panel of cancer cell lines.

[3] = system: HUVEC, human umbilical vein endothelial cells (primary cells); assay: Growth inhibition experiments (MTT, 5 d), HUVEC; format: cell-based; details: Table 1
From the text: (§3) With primary cells (HUVEC, human umbilical vein endothelial cells) and the fibroblast cell line MRC5 this is not the case. Whereas chondramides A˜C are comparably active on both, cancer and non-cancerous cells, brominated chondramide C3 analogs are on average by factor 2-4 less toxic for non-cancerous cells. Accordingly they show a higher selectivity.
as §2, §1

L-929 = assay: Growth inhibition experiments (GI50), L-929; format: cell-based; details: Table 1
[4] = system: KB-3.1: human cervical carcinoma; assay: Growth inhibition experiments (GI50), KB-3.1; format: cell-based; details: Table 1; KB-3.1
[5] = system: multidrug resistant (MDR) KB-V.1 cell line; assay: Growth inhibition experiments (MTT, 5 d), KB-V.1; format: cell-based; details: Table 1
Protocol: Cancer Inst. 90, 1559-1563). […] The same applies for most novel derivatives, solely a hydroxyl group at C2′ of the polyketide segment instead of methoxy or simply hydrogen leads to an approximately 10-fold reduced potency. GI50 values of glycosylated derivatives were not determinable precisely in the assay's concentration range.
as §1

[6] = system: fibroblast cell line MRC5; assay: Growth inhibition experiments (MTT, 5 d), MRC5; format: cell-based, human; details: Table 1
Protocol: as §3, §1

[7] = molecular target: T1, pyrene-labeled rabbit muscle actin (Oryctolagus cuniculus, UniProt P68135); assay: Actin polymerization assay (pyrene actin fluorescence); format: biochemical; details: 20 μM derivative, 5 μM pyrene actin, non-polymerizing buffer, followed over 85 min
T1 construct: pyrene-labeled rabbit muscle actin; purchased Cytoskeleton, Inc; host or cells: rabbit muscle (tissue-derived; inferred from the name)
Protocol: A final concentration of 20 μM for each derivative was chosen and polymerization was followed over 85 min.
Fluorescence-based actin polymerization assays were performed using pyrene muscle actin (Cytoskeleton, Inc.) according to the supplier's protocol. Chondramides were dissolved in non-polymerizing buffer (5 mM Tris-HCl pH 8.0, 0.2 mM CaCl2, 0.2 mM ATP, 1 mM DTT) and mixed with pyrene actin diluted in the same buffer to give a final concentration of 20 μM chondramide and 5 μM actin. Samples were prepared in black, low-volume 384-well plates (Corning, NBS™ surface). The fluorescence at 405 nm (excitation at 360 nm) was scanned every 30 s for 85 min at 37° C. on a microplate reader (Spectramax M5^e, Molecular Devices). Experiments were performed in duplicates and the average relative fluorescence of polymerizing pyrene actin is given. Slopes were calculated in the linear range of kinetic measurements.

[8] = system: HCT-116 colon carcinoma cell line; assay: Growth inhibition experiments (MTT, 5 d), HCT-116; format: cell-based, human; details: Table 1; HCT-116; read-out: GI50 values HCT-116
Protocol: as §1

melting point [°C]	Structure (SMILES)	GI50 [1] [nM]	growth inhibitory activity in cell lines (in words, compared to chondramides A~C / other derivatives) [2]	GI50 [3] [nM]	GI50 (L-929) [nM]	GI50 values KB-3.1 [4] [nM]	GI50 values KB-V.1 [5]	GI50 [6] [nM]	actin-polymerizing effect (G-actin polymerization in vitro) [7]	GI50 [8] [nM]	GI50 values L-929 (L-929)
–	COC1C(=O)OC(C)C(C)C=C(C)CC(C)C(=O)NC(C)C(=O)N(C)C(Cc2c(Cl)[nH]c3ccccc23)C(=O)NC1c1ccc(OP(=O)(O)O)cc1 (centres unmarked) [Chondramide A6]	51.6 ± 4.6	comparable to chondramides A˜C	67.7 ± 10.4	44.6 ± 5.5	49.3 ± 7.6	23.1 ± 1.5 nM	25.9 ± 1.5	significantly reduced actin-polymerizing effect	60.9 ± 3.5	–
–	CC1=CC(C)C(C)OC(=O)C(O)C(c2ccc(O)c(Cl)c2)NC(=O)C(Cc2c(Cl)[nH]c3ccccc23)N(C)C(=O)C(C)NC(=O)C(C)C1 (centres unmarked) [Chondramide E4]	352 ± 30.6	–	207 ± 26.4	555 ± 81.6	627.2 ± 122.5	251.5 ± 79.1 nM	480 ± 63.6	decreased ability to polymerize actin	379 ± 30.2	–
–	COC1C(=O)OC(C)C(C)C=C(C)CC(C)C(=O)NC(C)C(=O)N(C)C(Cc2c[nH]c3ccccc23)C(=O)NC1c1ccc(O)c(Cl)c1 (centres unmarked) [Chondramide A3]	46.7 ± 6.5	comparable to chondramides A˜C	50.5 ± 5.6	72.8 ± 3.6	63.5 ± 12.6	85.7 ± 1.4 nM	38 ± 2.8	significantly reduced actin-polymerizing effect	28.6 ± 3.9	–
135 to 139	C/C1=C\CCOC(=O)C[C@H](c2ccc(O)c(Cl)c2)NC(=O)[C@@H](Cc2c(Cl)[nH]c3ccccc23)N(C)C(=O)[C@H](C)NC(=O)CC1	–	–	–	–	–	–	–	–	–	–
–	CCC1OC(=O)CC(c2ccc(O)cc2)NC(=O)C(Cc2c[nH]c3ccccc23)N(C)C(=O)C(C)NC(=O)C(C)CC(C)=CC1C (centres unmarked) [Propionyl-Chondramide C1]	15.1 ± 1.1	comparable to chondramides A˜C	54.6 ± 5.5	30 ± 7.7	56.3 ± 9.6	22.7 ± 8.3 nM	71.9 ± 4.1	significantly reduced actin-polymerizing effect	42.1 ± 3.2	–
122 to 126	C/C1=C\CCOC(=O)C[C@H](c2ccc(O)c(Cl)c2)NC(=O)[C@@H](Cc2c[nH]c3ccccc23)N(C)C(=O)[C@H](C)NC(=O)CC1	–	–	–	–	–	–	–	–	–	–
–	COC1C(=O)OC(C)C(C)C=C(C)CC(C)C(=O)NC(C)C(=O)N(C)C(Cc2c[nH]c3ccccc23)C(=O)NC1c1ccc(OC2OC(C(=O)O)C(O)C(O)C2O)c(Cl)c1 (centres unmarked) [Chondramide A9]	–	significantly reduced	–	–	–	w.a.	–	does not show any actin-polymerizing effect	–	w.a.
